# According to US4916118A, “Pharmaceutical administration systems containing chemotactic peptides” (Board of Regents, The University of Texas System, priority 1987, dated 1990):
# Legend:
# [1] = tested on: mouse peritoneal macrophages; assay: In-vitro assay of macrophage mediated cytotoxicity ([125I]IdUrd radioactive release assay); type: cell-based; settings: for cpm +/- S.D.: 10^-8 M FMLP, radioactivity of remaining viable target tumor cells
# [2] = tested on: mouse peritoneal macrophages; assay: as above; type: cell-based
# Description: FMLP was purchased from Sigma Chemical Co. The stock solution (10 mM) was made in methanol and stored at -70° before use. For free form use, the stock solution was diluted to concentrations between 10^-4 M and 10^-7 M with CMEM containing 5% FBS. […]
# Macrophage mediated cytotoxicity was assessed by a radioactive release assay as described in Sone S. and Fidler I. J., Cell Immunology 57, 42 (1981). Target cells in exponential growth phase were incubated for 24 h in medium supplemented with [^125 I]IdUrd (0.2 μCi/ml; specific activity, 200 mCi/mmol; New England Nuclear, Boston, Mass.). The cells then were washed 3 times with warm HBSS to remove unbound radiolabel, harvested by a short trypsinization (0.25% Difco trypsin and 0.02% EDTA for 1 min at 37°), and resuspended in CMEM containing 5% FBS. Viable cells were plated into the wells containing macrophages to achieve a population density of 2500 macrophages and 250 tumor cells per sq mm (or an initial macrophage:target cell ratio of 10/1). At this population density, normal (untreated) macrophages are not cytotoxic to neoplastic cells. No significant differences were detected in the plating efficiency (binding) of [^125 I]IdUrd-labeled target cells to control or liposome-treated macrophage populations. Radiolabeled target cells also were plated alone as an additional control group. The macrophage-target cell cultures were refed with medium 24 h after the addition of the target cells to remove all nonplated cells and then were incubated for up to 3 days at 37°. At this time, the cultures were washed twice with HBSS to remove […], and the remaining viable, adherent cells were lysed with 0.1 ml of 0.1N NaOH. The lysate was absorbed in a cotton swab and placed directly into 10×75 mm tubes; radioactivity was measured in a gamma counter. […] The cytotoxic activity of the macrophages was calculated as follows: [formula] Experimental results were analyzed for their statistical significance by Student's 2-tailed t test.
smiles,measurement,setting,value
"CSCC[C@H](NC=O)C(=O)N[C@@H](CC(C)C)C(=O)N[C@@H](Cc1ccccc1)C(=O)O [Free FMLP, N-formyl-L-methionyl-L-leucyl-L-phenylalanine]",cpm +/- S.D.,[1]; Expt. I,2567 + 70 cpm
same,cpm +/- S.D.,[1]; Expt. II,2441 + 32 cpm
same,activation of mouse macrophages to lyse target tumor cells,"[1]; all FMLP concentrations (10^-8 to 10^-4 M), 72 hours of co-cultivation",ineffective in rendering macrophages tumoricidal
same,cpm +/- S.D.,"[2]; 10^-4 M FMLP, Expt. I",2478 + 74 cpm
same,cpm +/- S.D.,"[2]; 10^-4 M FMLP, Expt. II",2263 + 361 cpm
same,cpm +/- S.D.,"[2]; 10^-5 M FMLP, Expt. I",2619 + 82 cpm
same,cpm +/- S.D.,"[2]; 10^-5 M FMLP, Expt. II",2455 + 106 cpm
same,cpm +/- S.D.,"[2]; 10^-6 M FMLP, Expt. I",2633 + 61 cpm
same,cpm +/- S.D.,"[2]; 10^-6 M FMLP, Expt. II",2408 + 32 cpm
same,cpm +/- S.D.,"[2]; 10^-7 M FMLP, Expt. I",2559 + 109 cpm
same,cpm +/- S.D.,"[2]; 10^-7 M FMLP, Expt. II",2298 + 178 cpm
